Common to all, as to assay type: functional, cell-based
For one assay, the system named is L1210. In words: Cytotoxicity against mouse L1210 cells.
Another assay deals with P388. In words: Cytotoxicity against mouse P388 cells.
The subject of a further assay is KB. As to the kind of experiment: Cytotoxicity against human KB cells.

From ChEMBL document CHEMBL1800045, “Eudistomidins H-K, new β-carboline alkaloids from the Okinawan marine tunicate Eudistoma glaucus” (Bioorg Med Chem Lett, 2011) come the findings set out here.

As a reminder, the IC50 is the point on the concentration scale where inhibition reaches its midpoint. A low value points to greater potency.

In brackets after ≈: the same amount, converted by molar mass.

`CN[C@H](CSC)c1nccc2c1[nH]c1ccc(O)c(Br)c12` [EUDISTOMIDIN C]: in the assay with L1210, it took 0.36 µg/mL (≈ 0.983 µM) to reach half-maximal inhibition (IC50).
As to `CN1Cn2c3c(c4ccc(Br)cc42)CCN(C)[C@@H]3[C@@H]1Cc1ccccc1` [EUDISTOMIDIN H], the concentration for half-maximal inhibition (IC50) in the assay on P388, with L1210 and in the assay on KB was greater than 10 µg/mL each time.
Take `CN1Cn2c3c(c4cc(Br)ccc42)CCN(C)[C@@H]3[C@@H]1Cc1ccccc1` [EUDISTOMIDIN I]: the IC50 with P388, in the assay with L1210 and in the assay with KB was greater than 10 µg/mL in each case.
Take `CN[C@H](C[S+](C)[O-])c1nccc2c1[nH]c1ccc(O)c(Br)c12` (stereo partly drawn) [EUDISTOMIDIN J]: the 50% inhibitory concentration (IC50) in the assay on P388 is 0.043 µg/mL (≈ 0.112 µM); with L1210 it was 0.047 µg/mL (≈ 0.123 µM); with KB, 0.063 µg/mL (≈ 0.165 µM).
On the same counts, the results for `CC(=O)c1nccc2c1[nH]c1ccc(O)c(Br)c12` [EUDISTOMIDIN K] are greater than 10 µg/mL, greater than 10 µg/mL and greater than 10 µg/mL.
